The text below walks through data of patent USRE47302E1 (ONYX THERAPEUTICS INC., priority 2013, dated 2019).

Structures are written as SMILES. In brackets after ≈: the same amount, converted by molar mass.

For data set [1], the target named is human 20S immunoproteasome (i20S) (Homo sapiens, UniProt P28062). Nature of the data set: 20S proteasome assay, chymotrypsin-like activity (succinyl-Leu-Leu-Val-Tyr-AMC), i20S. The data set is classed as biochemical. Particulars: LLVY substrate, 1 h continuous. The source says:
(§1) Assay buffer consisted of TE buffer [20 mmol/L Tris (pH 8.0), 0.5 mmol/L EDTA] with (20S) or without (cell lysate) 0.03% SDS. Reactions were initiated by enzyme or lysate addition and monitored for AMC product formation at 27jC with a plate-based spectofluorometer (Tecan).

Data set [2] concerns the target human constitutive 20S proteasome (c20S) (Homo sapiens, UniProt P28074). Nature of the data set: 20S proteasome assay, chymotrypsin-like activity (succinyl-Leu-Leu-Val-Tyr-AMC), c20S. In kind it is biochemical. Particulars: LLVY substrate, 1 h continuous.
Description: as §1

A short description of another data set: Solubility pH 7. Particulars: pH 7, aqueous buffer.

For orientation: IC50 means the midpoint of a concentration-inhibition curve. High values mean weaker potency, low ones greater potency. As a reminder, the solubility is how much of the substance goes into solution per volume. Higher therefore signals a readily soluble substance. On to `COc1ccc(C[C@H](NC(=O)[C@H](C)NC(=O)CN2CCOCC2)C(=O)N[C@@H](CC2CCCC2)C(=O)[C@@]2(C)CO2)c(F)c1` [Compound C-1008, (S)-N-((S)-3-cyclopentyl-1-((R)-2-methyloxiran-2-yl)-1-oxopropan-2-yl)-3-(2-fluoro-4-methoxyphenyl)-2-((S)-2-(2-morpholinoacetamido)propanamido)propanamide], for which the IC50 in data set [1] was 2500 nM; in data set [2] it was 3380 nM. Further, the concentration in solution in the data set “Solubility pH 7” (solubility) came to 1430 µg/mL (≈ 2420 µM).
`C[C@H](NC(=O)CN1CCOCC1)C(=O)N[C@@H](Cc1ccco1)C(=O)N[C@@H](CC1CCCC1)C(=O)[C@@]1(C)CO1` [Compound C-1013, (S)-N-((S)-3-cyclopentyl-1-((R)-2-methyloxiran-2-yl)-1-oxopropan-2-yl)-3-(furan-2-yl)-2-((S)-2-(2-morpholinoacetamido)propanamido)propanamide]: the IC50 in data set [1] worked out at 445 nM; in data set [2], 548 nM. Moreover, the concentration in solution in “Solubility pH 7” (solubility) came to 911 µg/mL (≈ 1710 µM).
In the case of `C[C@H](NC(=O)CN1CCOCC1)C(=O)N[C@@H](Cc1c[nH]c2ccccc12)C(=O)N[C@@H](CC1CCCC1)C(=O)[C@@]1(C)CO1` [Compound C-1014, (S)-N-((S)-3-cyclopentyl-1-((R)-2-methyloxiran-2-yl)-1-oxopropan-2-yl)-3-(1H-indol-3-yl)-2-((S)-2-(2-morpholinoacetamido)propanamido)propanamide], the IC50 was 289 nM in data set [1] and 806 nM in data set [2]. The solubility in “Solubility pH 7” is 1020 µg/mL (≈ 1750 µM).
On the same counts, the results for `COc1ccc([C@H](O)[C@H](NC(=O)[C@H](C)NC(=O)CN2CCOCC2)C(=O)N[C@@H](CC2CCCC2)C(=O)[C@@]2(C)CO2)cc1` [Compound C-1023, (2S,3S)-N-((S)-3-cyclopentyl-1-((R)-2-methyloxiran-2-yl)-1-oxopropan-2-yl)-3-hydroxy-3-(4-methoxyphenyl)-2-((S)-2-(2-morpholinoacetamido)propanamido)propanamide] are 322 nM, 1880 nM and 3870 µg/mL (≈ 6570 µM).
Consider `C[C@H](NC(=O)CN1CCOCC1)C(=O)N[C@@H](Cc1cccc(S(C)(=O)=O)c1)C(=O)N[C@@H](CC1CCCC1)C(=O)[C@@]1(C)CO1` [Compound C-1024, (S)-N-((S)-3-cyclopentyl-1-((R)-2-methyloxiran-2-yl)-1-oxopropan-2-yl)-3-(3-(methylsulfonyl)phenyl)-2-((S)-2-(2-morpholinoacetamido)propanamido)propanamide], for which the IC50 turned out to be 707 nM in data set [1] and 715 nM in data set [2]. The solubility in the data set “Solubility pH 7” stood at 4760 µg/mL (≈ 7670 µM).
As for `COc1ccc(C[C@H](NC(=O)[C@@H](C)NC(=O)[C@@H]2CCCO2)C(=O)N[C@@H](CC2CCCC2)C(=O)[C@@]2(C)CO2)cc1` [Compound C-1031, (S)-N-((R)-1-(((S)-1-(((S)-3-cyclopentyl-1-((R)-2-methyloxiran-2-yl)-1-oxopropan-2-yl)amino)-3-(4-methoxyphenyl)-1-oxopropan-2-yl)amino)-1-oxopropan-2-yl)tetrahydrofuran-2-carboxamide], the IC50 in data set [1] is 2980 nM; in data set [2], greater than 250000 nM. In addition, the solubility in the data set “Solubility pH 7” came to 462 µg/mL (≈ 850 µM).
Turning to `COc1ccc(C[C@H](NC(=O)[C@@H](C)NC(=O)[C@H]2CCCO2)C(=O)N[C@@H](CC2CCCC2)C(=O)[C@@]2(C)CO2)cc1` [Compound C-1032, (R)-N-((R)-1-(((S)-1-(((S)-3-cyclopentyl-1-((R)-2-methyloxiran-2-yl)-1-oxopropan-2-yl)amino)-3-(4-methoxyphenyl)-1-oxopropan-2-yl)amino)-1-oxopropan-2-yl)tetrahydrofuran-2-carboxamide], the IC50 in data set [1] is 436 nM; in data set [2] it was 24800 nM. The molecule further displayed a solubility in “Solubility pH 7” of 251 µg/mL (≈ 462 µM).
